The test system of test [1] is histone H3 Lysine 14 acetylation (HBO1 mediated) in U2OS cells. Kind of test: Histone H3 Lysine 14 Acetylation Biomarker Assay (384-well, U2OS). The following applies: Homo sapiens, serum free medium, 24 hours incubation. The format is cell-based. The method, then: Compounds may be tested for their ability to inhibit acetylation of the histone H3 Lysine 14 (which is HBO1 mediated) marker in the following assay:
The cell line U2OS was seeded at a density of 3,000 cells per well in 384-well optical quality tissue culture plates in RPMI medium supplemented with 10% foetal bovine serum and 10 mM Hepes. The cells were allowed to adhere for 24 hours under standard culture conditions (37 degree Celsius, 5% CO2). At the end of this period the cells were washed with serum free medium. Compound dilutions prepared in DMSO were added to the serum free medium, with negative control wells reserved for treatment with DMSO only and 100% inhibition positive controls receiving a potent inhibitor compound (e.g. (Z)-4-fluoro-N-((3-hydroxyphenyl)sulfonyl)-5-methyl-[1,1′-biphenyl]-3-carbohydrazonic acid) at 10 μM concentration. After incubation for 24 hours, the cells were fixed with 4% formaldehyde in PBS for 15 minutes at room temperature, washed with phosphate buffer saline and blocked with blocking buffer containing 0.2% TritonX100 and 2% BSA. Anti-H3K14ac specific antibody (Cell Signalling Technologies) in blocking buffer was added and incubated overnight at 4 degree Celsius. After washing, a secondary antibody labelled with AlexaFluor 488 dye (ThermoFisher) and Hoechst 33342 (1 μg/mL, Life Technologies) were added for 2 hours incubation at room temperature. Plates were washed and read on a
PerkinElmer Opera HCS high content imaging platform. Using a Columbus image analysis pipeline, individual nuclei were located by Hoechst 33342 stain and the acetylation level was calculated from the AlexaFluor 488-related intensity in the same area. The resulting mean intensity per cell was converted to percent inhibition relative to controls on the same plate and the data fitted against a four-parameter logistic model to determine the 50% inhibitory concentration (IC50).

Test [2] concerns the target T1, HBO-KAT7 (Homo sapiens, UniProt O95251).
T1 construct: encoding amino acid residues 325 to 611 (Uniprot 095251-1) of human KAT7; made in house; host or cells: E. coli BL21 DE3 RIL
In words: Revised Acetyltransferase Biochemical Assay, KAT7. The following applies: Table 9 (HBO-KAT7), 1 μM Acetyl coenzyme A.

In test [3] the test system is histone H2A.Z Lysine 7 acetylation (TIP60 mediated) in U2OS cells. Kind of test: H2A.Z Lysine 7 Acetylation Biomarker Assay (384-well, U2OS). The format is cell-based. The following applies: Homo sapiens, serum free medium, 24 hours incubation. The method, then: Compounds may be tested for their ability to inhibit the histone H2A.Z Lysine 7 acetylation marker (which is TIP60 mediated) in the following assay:
The cell line U2OS was seeded at a density of 3,000 cells per well in 384-well optical quality tissue culture plates in RPMI medium supplemented with 10% foetal bovine serum and 10 mM Hepes. The cells were allowed to adhere for 24 hours under standard culture conditions (37 degree Celsius, 5% CO2). At the end of this period the cells were washed with serum free medium. […] After incubation for 24 hours, the cells were fixed with 4% formaldehyde in PBS for 15 minutes at room temperature, washed with phosphate buffer saline and blocked with blocking buffer containing 0.2% TritonX100 and 2% BSA. Anti-H2A.ZK7ac specific antibody (Abcam) in blocking buffer was added and incubated overnight at 4 degree Celsius. After washing, a secondary antibody labelled with AlexaFluor 488 dye (ThermoFisher) and Hoechst 33342 (1 μg/mL, Life Technologies) were added for 2 hours incubation at room temperature. Plates were washed and read on a PerkinElmer Opera HCS high content imaging platform. Using a Columbus image analysis pipeline, individual nuclei were located by Hoechst 33342 stain and the acetylation level was calculated from the AlexaFluor 488-related intensity in the same area. The resulting mean intensity per cell was converted to percent inhibition relative to controls on the same plate and the data fitted against a four-parameter logistic model to determine the 50% inhibitory concentration (IC50).

In a further test the target is T2, MOZ-KAT6A (Homo sapiens, UniProt Q92794, A567V).
T2 construct: encoding amino acid residues 507 to 778 (Uniprot Q92794-1) of human KAT6A; made in house; host or cells: E. coli BL21 DE3
T2 sequence (Q92794 507-778 A567V limits assumed): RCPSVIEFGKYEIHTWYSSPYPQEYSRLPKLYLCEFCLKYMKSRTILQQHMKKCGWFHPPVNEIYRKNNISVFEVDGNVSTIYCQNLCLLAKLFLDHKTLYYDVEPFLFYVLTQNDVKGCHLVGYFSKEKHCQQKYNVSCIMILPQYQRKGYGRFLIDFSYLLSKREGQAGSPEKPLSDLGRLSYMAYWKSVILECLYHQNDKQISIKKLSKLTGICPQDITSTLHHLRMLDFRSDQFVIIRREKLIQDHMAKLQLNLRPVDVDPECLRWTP
Kind of test: Revised Acetyltransferase Biochemical Assay, KAT6A. The following applies: Table 8 (MOZ-KAT6A), 1 μM Acetyl coenzyme A.

Test [4] concerns the target T3, MOF-KAT8 (Homo sapiens, UniProt Q9H7Z6).
T3 sequence (Q9H7Z6 177-447): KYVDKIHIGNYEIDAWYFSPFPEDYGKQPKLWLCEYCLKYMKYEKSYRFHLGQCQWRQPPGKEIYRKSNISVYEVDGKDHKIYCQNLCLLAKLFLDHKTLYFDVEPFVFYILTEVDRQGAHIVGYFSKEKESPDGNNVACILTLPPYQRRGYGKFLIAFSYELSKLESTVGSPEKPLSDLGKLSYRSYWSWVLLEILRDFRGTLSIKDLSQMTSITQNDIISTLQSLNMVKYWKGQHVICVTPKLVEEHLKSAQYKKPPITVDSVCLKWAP
In words: Acetyltransferase biochemical assay (AlphaScreen), KAT8. The following applies: Table 4 (MOF-KAT8); 0.4 μM Acetyl coenzyme A, histone H4, 20 nM enzyme.

Another test addresses T4, TIP60-KAT5 (Homo sapiens, UniProt Q92993).
T4 construct: encoding amino acid residues 2 to 461 (Uniprot Q92993-2) of human KAT5 isoform; made in house; host or cells: E. coli BL21 DE3
Kind of test: Revised Acetyltransferase Biochemical Assay, KAT5. The conditions noted are these: 10 nM KAT5, 1 μM AcCoA, 100 nM histone H4, 90 min.

Test [5] addresses T3, MOF-KAT8. In words: Revised Acetyltransferase Biochemical Assay, KAT8.
For test [6], the target named is T1, HBO-KAT7. In words: Acetyltransferase biochemical assay (AlphaScreen), KAT7. The following applies: Table 3 (HBO-KAT7); 0.4 μM Acetyl coenzyme A, histone H3.1, 40 nM enzyme. Background: Alpha assays give light when donor and acceptor beads are brought close together.

T1 sequence (O95251 with tags, fused parts or gaps): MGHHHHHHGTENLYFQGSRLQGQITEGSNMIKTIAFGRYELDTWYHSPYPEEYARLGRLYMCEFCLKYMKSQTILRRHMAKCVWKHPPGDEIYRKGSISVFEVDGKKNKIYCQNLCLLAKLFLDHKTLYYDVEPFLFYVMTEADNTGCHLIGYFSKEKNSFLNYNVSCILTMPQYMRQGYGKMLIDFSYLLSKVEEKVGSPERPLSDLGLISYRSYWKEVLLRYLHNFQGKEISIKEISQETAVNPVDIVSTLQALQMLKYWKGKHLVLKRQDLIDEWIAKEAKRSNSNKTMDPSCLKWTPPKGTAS
T4 sequence (Q92993 2-461 isoform Q92993-2): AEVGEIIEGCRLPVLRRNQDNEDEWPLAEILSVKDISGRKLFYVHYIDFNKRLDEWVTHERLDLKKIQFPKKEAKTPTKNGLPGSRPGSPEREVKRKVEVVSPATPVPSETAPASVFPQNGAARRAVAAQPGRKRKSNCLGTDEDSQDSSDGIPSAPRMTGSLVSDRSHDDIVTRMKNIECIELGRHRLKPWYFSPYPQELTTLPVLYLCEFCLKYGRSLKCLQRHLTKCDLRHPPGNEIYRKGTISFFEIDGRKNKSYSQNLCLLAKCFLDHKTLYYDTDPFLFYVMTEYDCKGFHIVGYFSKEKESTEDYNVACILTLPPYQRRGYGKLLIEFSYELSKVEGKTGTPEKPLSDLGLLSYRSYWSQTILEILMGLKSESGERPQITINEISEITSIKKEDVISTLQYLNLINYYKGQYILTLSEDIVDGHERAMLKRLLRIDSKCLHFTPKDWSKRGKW

As usually defined, the IC50 is the concentration at which inhibition is half-maximal. A high value points to weaker potency. Regarding `O=C(NCCc1ccccc1-n1ncc(CO)n1)C1=Nc2ccc(I)cc2S(=O)(=O)N1` [Example 190, N-(2-(4-(hydroxymethyl)-2H-1,2,3-triazol-2-yl)phenethyl)-7-iodo-2H-benzo[e][1,2,4]thiadiazine-3-carboxamide 1,1-dioxide], the IC50 turned out to be 4.95 µM in test [1]; 414 nM against HBO-KAT7 [2]; 31.1 µM in test [3]; 8 nM against MOZ-KAT6A; 48.9 µM at MOF-KAT8 [4]; 303 nM against TIP60-KAT5. This compound had an IC50 on MOF-KAT8 [5] of 68.4 µM.
As to `Cc1ccc(C(CNC(=O)C2=Nc3ccc(I)cc3S(=O)(=O)N2)c2ncco2)cc1` (stereo not shown) [Example 169], the IC50 is 1.3 µM in test [1]; 386 nM on HBO-KAT7 [2]; 9.88 µM in test [3]; 23 nM on MOZ-KAT6A; 5.14 µM against MOF-KAT8 [4]; 412 nM on TIP60-KAT5. For the same compound, half-maximal inhibition on MOF-KAT8 [5] (IC50) was put at 43.7 µM.
`Nc1nnc(C(CNC(=O)C2=Nc3ccc(I)cc3S(=O)(=O)N2)c2ccccc2)o1` (stereo not shown) [Example 189]: the IC50 in test [1] was more than 20 µM; at HBO-KAT7 [2], 214 nM; in test [3] it was more than 40 µM; on MOZ-KAT6A it was 75 nM; at MOF-KAT8 [4], 7.96 µM; against TIP60-KAT5, 2850 nM. For the same compound, half-maximal inhibition at MOF-KAT8 [5] (IC50) was put at 28.7 µM.
Regarding `O=C(NCC(CO)c1ccccc1)C1=Nc2ccc(Cl)cc2S(=O)(=O)N1` (stereo not shown) [Example 225, 7-Chloro-N-(3-hydroxy-2-phenylpropyl)-2H-benzo[e][1,2,4]thiadiazine-3-carboxamide 1,1-dioxide], the IC50 in test [1] is more than 40 µM; against HBO-KAT7 [2], 1460 nM; in test [3], more than 40 µM; against MOZ-KAT6A it was 447 nM; against TIP60-KAT5, 5120 nM; on MOF-KAT8 [5], more than 125 µM.
In the case of `COc1cccc(C(CNC(=O)C2=Nc3ccc(I)cc3S(=O)(=O)N2)c2ncco2)c1` (stereo not shown) [Example 187, 7-iodo-N-(2-(3-methoxyphenyl)-2-(oxazol-2-yl)ethyl)-2H-benzo[e][1,2,4]thiadiazine-3-carboxamide 1,1-dioxide], the concentration for half-maximal inhibition (IC50) in test [1] turned out to be 0.491 µM; against HBO-KAT7 [2], 115 nM; in test [3] it was 5.46 µM; against MOZ-KAT6A, 15 nM; on MOF-KAT8 [4], 22.8 µM; at TIP60-KAT5, 242 nM. The compound also registered an IC50 against MOF-KAT8 [5] of 14.1 µM.
As for `COc1cccc(C(CNC(=O)C2=Nc3ccc(Br)cc3S(=O)(=O)N2)c2ncco2)c1` (stereo not shown) [Example 188, 7-bromo-N-(2-(3-methoxyphenyl)-2-(oxazol-2-yl)ethyl)-2H-benzo[e][1,2,4]thiadiazine-3-carboxamide 1,1-dioxide], the IC50 was 0.427 µM in test [1]; 215 nM against HBO-KAT7 [2]; 41 nM at MOZ-KAT6A; 39.8 µM on MOF-KAT8 [4]; 1440 nM against TIP60-KAT5; 54.3 µM on MOF-KAT8 [5].
For the compound `O=C(NCC(c1cccc(O)c1)c1ncco1)C1=Nc2ccc(Br)cc2S(=O)(=O)N1` (stereo not shown) [Example 214, 7-Bromo-N-(2-(3-hydroxyphenyl)-2-(oxazol-2-yl)ethyl)-2H-benzo[e][1,2,4]thiadiazine-3-carboxamide 1,1-dioxide], the half-maximal inhibitory concentration (IC50) in test [1] stood at 3.6 µM; against HBO-KAT7 [2], 50 nM; in test [3], 8.78 µM; at MOZ-KAT6A, 9 nM; on MOF-KAT8 [4] it was 7.06 µM; at TIP60-KAT5, 70 nM. In addition, at MOF-KAT8 [5], it took 20.1 µM to reach half-maximal inhibition (IC50).
For `O=C(NCC(c1cccc(Cl)c1)c1ncco1)C1=Nc2ccc(Cl)cc2S(=O)(=O)N1` (stereo not shown) [Example 162], the IC50 in test [1] was 6.52 µM; on HBO-KAT7 [2] it was 512 nM; in test [3], 10.9 µM; at MOZ-KAT6A, 29 nM; at MOF-KAT8 [4], 4.2 µM; against TIP60-KAT5, 1540 nM. The compound also gave an IC50 at MOF-KAT8 [5] of 34.5 µM.
Regarding `O=C(NCC(c1ccc(F)cc1)c1ncco1)C1=Nc2ccc(I)cc2S(=O)(=O)N1` (stereo not shown) [Example 164], the IC50 in test [1] turned out to be 2.08 µM; at HBO-KAT7 [2], 242 nM; in test [3], 2.82 µM; on MOZ-KAT6A, 17 nM; against MOF-KAT8 [4], 29.6 µM; against TIP60-KAT5, 781 nM. Half-maximal inhibition on MOF-KAT8 [5] (IC50) was put at 34.4 µM.
`O=C(NCC(c1cccc(OCC2CC2)c1)c1ncco1)C1=Nc2ccc(I)cc2S(=O)(=O)N1` (stereo not shown) [Example 217, N-(2-(3-(Cyclopropylmethoxy)phenyl)-2-(oxazol-2-yl)ethyl)-7-iodo-2H-benzo[e][1,2,4]thiadiazine-3-carboxamide 1,1-dioxide]: the IC50 was 1.29 µM in test [1]; 1740 nM at HBO-KAT7 [6]; 1190 nM at HBO-KAT7 [2]; 32.1 µM in test [3]; 265 nM against MOZ-KAT6A; 22.5 µM at MOF-KAT8 [4]. This compound gave a concentration for half-maximal inhibition (IC50) on TIP60-KAT5 of 1460 nM.
In the case of `O=C(NCCc1ccccc1-n1cccn1)C1=Nc2ccc(I)cc2S(=O)(=O)N1` [Example 240, N-(2-(1H-pyrazol-1-yl)phenethyl)-7-iodo-2H-benzo[e][1,2,4]thiadiazine-3-carboxamide 1,1-dioxide], the half-maximal inhibitory concentration (IC50) stood at 3.32 µM in test [1]; 134 nM at HBO-KAT7 [2]; 11.2 µM in test [3]; 21 nM on MOZ-KAT6A; 309 nM against TIP60-KAT5; 62.6 µM against MOF-KAT8 [5].
Regarding `COCC(CNC(=O)C1=Nc2ccc(Cl)cc2S(=O)(=O)N1)c1ccccc1` (stereo not shown) [Example 226, 7-Chloro-N-(3-methoxy-2-phenylpropyl)-2H-benzo[e][1,2,4]thiadiazine-3-carboxamide 1,1-dioxide], the IC50 in test [1] is 24.4 µM; at HBO-KAT7 [2], 1930 nM; in test [3] it was more than 40 µM; on MOZ-KAT6A, 75 nM; against TIP60-KAT5, 3730 nM; against MOF-KAT8 [5], more than 125 µM.
Turning to `COCc1nnc(C(CNC(=O)C2=Nc3ccc(I)cc3S(=O)(=O)N2)c2ccccc2)o1` (stereo not shown) [Example 171], the IC50 in test [1] was 10.4 µM; at HBO-KAT7 [2] it was 785 nM; in test [3] it was more than 40 µM; on MOZ-KAT6A it was 24 nM; against MOF-KAT8 [4], 41.7 µM; on TIP60-KAT5, 1160 nM. This compound registered an IC50 against MOF-KAT8 [5] of more than 125 µM.
Turning to `Cc1ccccc1C(CNC(=O)C1=Nc2ccc(I)cc2S(=O)(=O)N1)c1ncco1` (stereo not shown) [Example 237, 7-iodo-N-(2-(oxazol-2-yl)-2-(o-tolyl)ethyl)-2H-benzo[e][1,2,4]thiadiazine-3-carboxamide 1,1-dioxide], the IC50 is 0.498 µM in test [1]; 121 nM against HBO-KAT7 [2]; 3.41 µM in test [3]; 10 nM against MOZ-KAT6A; 6.35 µM against MOF-KAT8 [4]; 163 nM against TIP60-KAT5. The compound further yielded an IC50 at MOF-KAT8 [5] of 15.3 µM.

These data come from patent publication US20210380548A1, “Fused [1,2,4]Thiadiazine Derivatives Which Act as KAT Inhibitors of the MYST Family” (CTxT Pty Limited, priority 2017, published 2021).
